# Test system: human skin explants
# Experiment: Colouring effect on human skin explants under survival conditions (ex vivo model)
# Assay type: cell-based
# Conditions: 72 hours, C-Cube Dermoscope colorimetric differences, four donors
# Experimental: Owing to the lack of cell and animal pharmacological models, the inventors developed an ex vivo model in order to overcome the difficulties related to absorption of the active agents. Indeed, there is no absorption of crocin without intestinal hydrolysis first and low assimilation of crocetin and of these derivatives after passage.
# The objective of this study was to evaluate the colouring effect of various extracts applied to human skin explants under survival conditions over 72 hours. Maintenance under survival conditions is carried out in 6-well culture plates containing culture medium. These culture plates are placed in an incubator at 37° C. with 5% CO2. The studies were carried out on four donors.
# The colouring of each medium containing active agents or control is evaluated with the C-Cube Dermoscope (Clinical Edition) from Pixience SAS. The evaluation concerns the maximum colouring which can be obtained, i.e., the 100% level on the colour mapping scale relating to each active agent. The colouring of each explant is measured using the C-Cube Dermoscope (Clinical Edition). First, the explant is placed in a solution of medium with no active agent in order to rinse the explant of the active agent molecules present on the explant surface and which have not penetrated the skin. […]
compound,measurement,value
CC(/C=C/C=C(\C)C(=O)O)=C\C=C\C=C(C)\C=C\C=C(/C)C(=O)O [crocetin],colouring strength,high colouring strength

# Reference: patent US20180250221A1, “GARDENIA EXTRACT FOR COLOURING THE SKIN” (PIERRE FABRE MEDICAMENT, priority 2015, published 2018)
